What was measured:
Assay type in all cases: biochemical
[1] = molecular target: T1, PDE4B1 (Homo sapiens, UniProt Q07343); assay: PDE4 inhibitory activity assay (FAM-cAMP enzymatic reaction), PDE4B1
T1 construct: purchased BPS 60041
Method in brief: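 Each isoform is incubated with test compound for 15 min at room temperature before FAM-cAMP substrate starts a 30-min reaction.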

[2] = molecular target: PDE4D2 (Homo sapiens, UniProt Q08499); assay: PDE4 inhibitory activity assay (FAM-cAMP enzymatic reaction), PDE4D2
Method in brief: (§1)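 Human PDE4A1A, PDE4B1 or PDE4D2 preincubated with compound 15 min at room temperature, then FAM-cAMP substrate added; reaction 30 min at room temperature before stop solution and further 60 min. Fluorescence read on multilabel counter; IC50 fitted from inhibition rates.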

[3] = molecular target: T2, PDE4A1A (Homo sapiens, UniProt P27815); assay: PDE4 inhibitory activity assay (FAM-cAMP enzymatic reaction), PDE4A1A
T2 construct: purchased BPS 60040
Method in brief: as §1

[4] = compared with Apremilast and Example 11 of WO2018036470 (WX011)

PDE4D2, sequence (Q08499 303-809): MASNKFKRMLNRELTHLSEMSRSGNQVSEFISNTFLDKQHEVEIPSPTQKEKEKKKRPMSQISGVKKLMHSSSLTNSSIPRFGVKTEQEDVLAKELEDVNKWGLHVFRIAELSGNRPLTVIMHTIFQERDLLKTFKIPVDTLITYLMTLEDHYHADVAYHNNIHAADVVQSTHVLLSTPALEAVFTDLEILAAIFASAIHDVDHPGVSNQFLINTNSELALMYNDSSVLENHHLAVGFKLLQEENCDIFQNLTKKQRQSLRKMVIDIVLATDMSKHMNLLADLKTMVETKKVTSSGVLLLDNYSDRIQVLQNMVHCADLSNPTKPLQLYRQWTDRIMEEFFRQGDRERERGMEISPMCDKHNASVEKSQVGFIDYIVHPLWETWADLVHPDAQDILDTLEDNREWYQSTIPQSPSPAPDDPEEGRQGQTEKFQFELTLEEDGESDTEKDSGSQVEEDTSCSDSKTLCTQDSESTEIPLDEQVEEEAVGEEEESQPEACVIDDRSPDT
T1 sequence (Q07343 whole entry): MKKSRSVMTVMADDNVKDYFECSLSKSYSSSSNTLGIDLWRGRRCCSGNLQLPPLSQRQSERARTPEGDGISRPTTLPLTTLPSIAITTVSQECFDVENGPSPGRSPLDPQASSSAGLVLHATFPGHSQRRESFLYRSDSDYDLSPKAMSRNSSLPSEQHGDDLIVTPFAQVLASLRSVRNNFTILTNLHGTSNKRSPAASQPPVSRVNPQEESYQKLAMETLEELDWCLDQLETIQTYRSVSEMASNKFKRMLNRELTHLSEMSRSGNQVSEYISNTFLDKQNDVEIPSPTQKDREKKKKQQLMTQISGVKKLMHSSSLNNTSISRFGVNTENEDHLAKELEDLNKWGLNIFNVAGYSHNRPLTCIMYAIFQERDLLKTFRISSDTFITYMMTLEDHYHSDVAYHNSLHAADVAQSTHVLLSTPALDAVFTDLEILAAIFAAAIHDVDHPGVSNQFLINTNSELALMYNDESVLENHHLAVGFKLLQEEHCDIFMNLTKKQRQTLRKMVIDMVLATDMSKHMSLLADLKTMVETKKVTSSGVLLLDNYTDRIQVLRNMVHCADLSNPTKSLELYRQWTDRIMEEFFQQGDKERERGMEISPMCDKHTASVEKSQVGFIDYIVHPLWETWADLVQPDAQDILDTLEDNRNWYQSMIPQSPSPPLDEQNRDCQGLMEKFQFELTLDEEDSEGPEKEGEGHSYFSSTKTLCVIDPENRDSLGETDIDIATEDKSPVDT
T2 sequence (P27815 1-647 isoform P27815-4): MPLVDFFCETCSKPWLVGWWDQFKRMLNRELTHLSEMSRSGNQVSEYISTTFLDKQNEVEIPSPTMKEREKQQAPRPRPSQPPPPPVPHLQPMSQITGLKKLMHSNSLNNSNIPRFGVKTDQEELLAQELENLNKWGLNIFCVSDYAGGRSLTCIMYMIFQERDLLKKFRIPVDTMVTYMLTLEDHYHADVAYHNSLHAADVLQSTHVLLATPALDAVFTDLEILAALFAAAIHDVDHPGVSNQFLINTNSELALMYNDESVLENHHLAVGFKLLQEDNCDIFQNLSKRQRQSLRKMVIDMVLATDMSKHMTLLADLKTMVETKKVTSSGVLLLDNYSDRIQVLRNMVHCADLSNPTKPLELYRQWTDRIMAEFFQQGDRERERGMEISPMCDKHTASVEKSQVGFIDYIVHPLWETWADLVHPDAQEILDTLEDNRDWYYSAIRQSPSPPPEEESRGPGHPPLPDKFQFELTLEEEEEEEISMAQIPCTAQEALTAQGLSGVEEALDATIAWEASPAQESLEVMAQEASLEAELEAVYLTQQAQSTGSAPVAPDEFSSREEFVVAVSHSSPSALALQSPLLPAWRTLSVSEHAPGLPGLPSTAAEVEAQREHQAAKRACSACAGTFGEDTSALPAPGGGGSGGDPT

PDE4 B1 inhibitory effect at 20 nM [1]	PDE4 D2 inhibitory effect at 20 nM [2]	PDE4 A1 inhibitory effect at 20 nM [3]	IC50 ([2]; read-out: PDE4 D2 inhibitory activity (IC50 value)) [nM]	Structure (SMILES)	inhibitory activity against PDE4B1 compared with Apremilast and WX011 [1, 4]	inhibitory activity against PDE4D2 compared with Apremilast and WX011 [2, 4]	inhibitory activity against PDE4A1A compared with Apremilast and WX011 [3, 4]
+	+	+	–	CCOc1nc([C@H](CS(C)(=O)=O)n2c(=O)[nH]c3cc(-c4ccccc4F)ccc32)ccc1OC [Ex. 134, (R)-1-(1-(6-ethoxy-5-methoxypyridin-2-yl)-2-(methylsulfonyl)ethyl)-5-(2-fluorophenyl)-1H-benzo[d]imidazol-2(3H)-one]	–	–	–
+	+	+	–	CCOC(=O)c1ccc2c(c1)[nH]c(=O)n2[C@H](CS(C)(=O)=O)c1ccc(OC)c(OCC)n1 [Ex. 212, (S)-ethyl 1-(1-(6-ethoxy-5-methoxypyridin-2-yl)-2-(methylsulfonyl)ethyl)-2-oxo-2,3-dihydro-1H-benzo[d]imidazole-5-carboxylate]	–	–	–
+	+	+	–	CCOc1nc([C@@H](CS(C)(=O)=O)n2c(=O)[nH]c3cc(-c4cc(OC)ccc4F)ccc32)ccc1OC [Ex. 181, (S)-5-(2-fluoro-5-methoxyphenyl)-1-(1-(6-ethoxy-5-methoxypyridin-2-yl)-2-(methylsulfonyl)ethyl)-1H-benzo[d]imidazol-2(3H)-one]	–	–	–
+	+	+	–	CCOc1nc([C@@H](CS(C)(=O)=O)n2c(=O)[nH]c3cc(-c4c(C)cccc4C)ccc32)ccc1OC [Ex. 168, (S)-5-(2,6-dimethylphenyl)-1-(1-(6-ethoxy-5-methoxypyridin-2-yl)-2-(methylsulfonyl)ethyl)-1H-benzo[d]imidazol-2(3H)-one]	–	–	–

Second part, the molecule before the results:

Structure (SMILES)	PDE4 B1 inhibitory effect at 20 nM [1]	PDE4 D2 inhibitory effect at 20 nM [2]	PDE4 A1 inhibitory effect at 20 nM [3]	IC50 ([2]; read-out: PDE4 D2 inhibitory activity (IC50 value)) [nM]	inhibitory activity against PDE4B1 compared with Apremilast and WX011 [1, 4]	inhibitory activity against PDE4D2 compared with Apremilast and WX011 [2, 4]	inhibitory activity against PDE4A1A compared with Apremilast and WX011 [3, 4]
CCOc1nc([C@@H](CS(C)(=O)=O)n2c(=O)[nH]c3c(C)c(-c4ccccc4C)cnc32)ccc1OC [Ex. 8, (S)-3-(1-(6-ethoxy-5-methoxypyridin-2-yl)-2-(methylsulfonyl)ethyl)-7-methyl-6-(o-methylphenyl)-1H-imidazo[4,5-b]pyridin-2(3H)-one]	–	–	–	3.8	significantly enhanced inhibitory activity	significantly enhanced inhibitory activity	significantly enhanced inhibitory activity
CCOc1nc([C@@H](CS(C)(=O)=O)n2c(=O)n(C)c3cc(-c4ccccc4F)cnc32)ccc1OC [Ex. 126, (S)-3-(1-(6-ethoxy-5-methoxypyridin-2-yl)-2-(methylsulfonyl)ethyl)-6-(2-fluorophenyl)-1-methyl-1H-imidazo[4,5-b]pyridin-2(3H)-one]	+	+	+	–	–	–	–
CCOc1nc([C@@H](CS(C)(=O)=O)n2c(=O)n(C3CC3)c3cc(-c4ccccc4F)ccc32)ccc1OC [Ex. 208, (S)-3-cyclopropyl-1-(1-(6-ethoxy-5-methoxypyridin-2-yl)-2-(methylsulfonyl)ethyl)-5-(2-fluorophenyl)-1H-benzo[d]imidazol-2(3H)-one]	+	+	+	–	–	–	–
CCOc1nc([C@@H](CS(C)(=O)=O)n2c(=O)n(C)c3c(C)c(-c4ccccc4F)cnc32)ccc1OC(F)F [Ex. 65, (S)-3-(1-(5-(difluoromethoxy)-6-ethoxypyridin-2-yl)-2-(methylsulfonyl)ethyl)-6-(2-fluorophenyl)-1,7-dimethyl-1H-imidazo[4,5-b]pyridin-2(3H)-one]	+	+	+	–	–	–	–
CCOc1nc([C@@H](CS(C)(=O)=O)n2c(=O)n(C)c3cc(-c4cc(C)ccc4C)ccc32)ccc1OC [Ex. 165, (S)-5-(2,5-dimethylphenyl)-1-(1-(6-ethoxy-5-methoxypyridin-2-yl)-2-(methylsulfonyl)ethyl)-3-methyl-1H-benzo[d]imidazol-2(3H)-one]	+	+	+	–	–	–	–

Reference: patent US20230141101A1, “PDE4 INHIBITOR COMPOUND AND MEDICAL USE THEREOF” (Suzhou Longbotai Pharmaceuticals Co., Ltd., priority 2020, published 2023)
